According to patent US9108944B2, “Androgen receptor modulators and uses thereof” (ARAGON PHARMACEUTICALS, INC., priority 2010, dated 2015):
pIC50: −log10 of the molar value.

What follows are molecules tested against T1, AR-VP16 (Homo sapiens, UniProt P10275) (assay: AR-VP16 DNA Binding Assay, agonist mode (HepG2 cells)). Settings: Emax >20x DMSO control = agonist.
T1 sequence (P10275 560-920 limits assumed): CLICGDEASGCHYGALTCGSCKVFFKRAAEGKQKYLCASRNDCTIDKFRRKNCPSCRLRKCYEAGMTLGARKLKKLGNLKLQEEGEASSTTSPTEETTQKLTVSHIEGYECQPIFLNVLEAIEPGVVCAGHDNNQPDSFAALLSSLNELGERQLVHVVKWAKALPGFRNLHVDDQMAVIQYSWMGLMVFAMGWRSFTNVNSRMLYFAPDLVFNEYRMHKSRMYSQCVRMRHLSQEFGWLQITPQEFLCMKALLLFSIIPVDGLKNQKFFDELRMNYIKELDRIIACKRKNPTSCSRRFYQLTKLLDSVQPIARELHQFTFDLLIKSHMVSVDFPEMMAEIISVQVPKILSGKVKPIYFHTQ
Assay type: cell-based

Compound	ARVP16 DNA Binding Assay (Agonist mode): Agonist?
N#Cc1ncc(N2C(=O)C3(CCC3)N(c3ccc(OCCn4cccc4)c(F)c3)C2=S)cc1C(F)(F)F [Compound 146, 5-(5-(4-(2-(1H-Pyrrol-1-yl)ethoxy)-3-fluorophenyl)-8-oxo-6-thioxo-5,7-diazaspiro[3.4]octan-7-yl)-3-(trifluoromethyl)picolinonitrile]	No (Agonist defined as a compound whose Emax in the ARVP16 DNA Binding Assay (Agonist mode) is >20x DMSO control)
Cc1cc(N2C(=O)C3(CCC3)N(c3ccc(C(=O)Nc4cccc(F)c4)c(F)c3)C2=S)cnc1C#N [Compound 298, 4-(7-(6-Cyano-5-methylpyridin-3-yl)-8-oxo-6-thioxo-5,7-diazaspiro[3.4]octan-5-yl)-2-fluoro-N-(3-fluorophenyl)benzamide]	No (Agonist defined as a compound whose Emax in the ARVP16 DNA Binding Assay (Agonist mode) is >20x DMSO control)
CN1CCC(Oc2ccc(N3C(=S)N(c4cnc(C#N)c(C(F)(F)F)c4)C(=O)C34CCC4)cc2)CC1 [Compound 129, 5-(5-(4-((1-Methylpiperidin-4-yl)oxy)phenyl)-8-oxo-6-thioxo-5,7-diazaspiro[3.4]octan-7-yl)-3-(trifluoromethyl)picolinonitrile]	No (Agonist defined as a compound whose Emax in the ARVP16 DNA Binding Assay (Agonist mode) is >20x DMSO control)

Each molecule was assayed against T1, AR-VP16 (assay: AR-VP16 DNA Binding Assay, antagonist mode (HepG2 cells, 0.1 nM R1881)). Settings: not given.
Assay type: cell-based
Method in brief: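 Transfected HepG2 cells expressing AR-VP16 received serially diluted compound in charcoal-stripped-serum RPMI the day after transfection, with 0.1 nM R1881 (final) added only for antagonist testing. After 48 h, cells were lysed for measurement.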

Compound	pIC50
N#Cc1ncc(N2C(=O)C3(CCC3)N(c3ccc(OCCn4cccc4)c(F)c3)C2=S)cc1C(F)(F)F [Compound 146, 5-(5-(4-(2-(1H-Pyrrol-1-yl)ethoxy)-3-fluorophenyl)-8-oxo-6-thioxo-5,7-diazaspiro[3.4]octan-7-yl)-3-(trifluoromethyl)picolinonitrile]	> 6.00
Cc1cc(N2C(=O)C3(CCC3)N(c3ccc(C(=O)Nc4cccc(F)c4)c(F)c3)C2=S)cnc1C#N [Compound 298, 4-(7-(6-Cyano-5-methylpyridin-3-yl)-8-oxo-6-thioxo-5,7-diazaspiro[3.4]octan-5-yl)-2-fluoro-N-(3-fluorophenyl)benzamide]	> 6.00
COCCOc1ccc(N2C(=S)N(c3ccc(C#N)c4ncccc34)C(=O)C23CCC3)cc1F [Compound 171, 5-(5-(3-Fluoro-4-(2-methoxyethoxy)phenyl)-8-oxo-6-thioxo-5,7-diazaspiro[3.4]octan-7-yl)quinoline-8-carbonitrile]	> 6.00
Cc1cc(N2C(=O)C3(CCC3)N(c3ccc(-c4cncnc4)cc3)C2=S)cnc1C#N [Compound 103, 3-Methyl-5-(8-oxo-5-(4-(pyrimidin-5-yl)phenyl)-6-thioxo-5,7-diazaspiro[3.4]octan-7-yl)picolinonitrile]	> 6.00
Cc1cc(N2C(=O)C3(CCC3)N(c3ccc(N(C)C4CCN(C)CC4)cc3)C2=S)cnc1C#N [Compound 102, 3-Methyl-5-(5-(4-(methyl(1-methylpiperidin-4-yl)amino)phenyl)-8-oxo-6-thioxo-5,7-diazaspiro[3.4]octan-7-yl)picolinonitrile]	< 6.00
N#Cc1ncc(N2C(=O)C3(CCC3)N(c3ccc4ccncc4c3)C2=S)cc1C(F)(F)F [Compound 52, 5-(5-(Isoquinolin-7-yl)-8-oxo-6-thioxo-5,7-diazaspiro[3.4]octan-7-yl)-3-(trifluoromethyl)picolinonitrile]	> 6.00
N#Cc1ncc(N2C(=O)C3(CCC3)N(c3ccc(OCc4ccccn4)c(F)c3)C2=S)cc1C(F)(F)F [Compound 147, 5-(5-(3-Fluoro-4-(pyridin-2-ylmethoxy)phenyl)-8-oxo-6-thioxo-5,7-diazaspiro[3.4]octan-7-yl)-3-(trifluoromethyl)picolinonitrile]	> 6.00
N#Cc1ncc(N2C(=O)C3(CCC3)N(c3ccc(C(=O)NCCCc4ccccc4)c(F)c3)C2=S)cc1C(F)(F)F [Compound 258, 4-(7-(6-Cyano-5-(trifluoromethyl)pyridin-3-yl)-8-oxo-6-thioxo-5,7-diazaspiro[3.4]octan-5-yl)-2-fluoro-N-(3-phenylpropyl)benzamide]	> 6.00
Cc1ccc(N2C(=S)N(c3ccc4nnc(C(F)(F)F)n4n3)C(=O)C23CCC3)cc1 [Compound 30, 6-Thioxo-5-(p-tolyl)-7-(3-(trifluoromethyl)-[1,2,4]triazolo[4,3-b]pyridazin-6-yl)-5,7-diazaspiro[3.4]octan-8-one]	> 6.00
Cc1cccc(N2C(=S)N(c3cnc(C#N)c(C(F)(F)F)c3)C(=O)C23CCC3)c1 [Compound 21, 5-(8-Oxo-6-thioxo-5-(m-tolyl)-5,7-diazaspiro[3.4]octan-7-yl)-3-(trifluoromethyl)picolinonitrile]	> 6.00
N#Cc1ncc(N2C(=O)C3(CCC3)N(c3ccc(OCCN4CCNCC4)c(F)c3)C2=S)cc1C(F)(F)F [Compound 174, 5-(5-(3-fluoro-4-(2-(piperazin-1-yl)ethoxy)phenyl)-8-oxo-6-thioxo-5,7-diazaspiro[3.4]octan-7-yl)-3-(trifluoromethyl)picolinonitrile]	> 6.00
N#Cc1ncc(N2C(=O)C3(CCC3)N(c3cccc(CO)c3)C2=S)cc1C(F)(F)F [Compound 67, 5-(5-(3-(Hydroxymethyl)phenyl)-8-oxo-6-thioxo-5,7-diazaspiro[3.4]octan-7-yl)-3-(trifluoromethyl)picolinonitrile]	> 6.00
CS(=O)(=O)c1ccc(N2C(=S)N(c3cnc(C#N)c(C(F)(F)F)c3)C(=O)C23CCC3)cc1 [Compound 80, 5-(5-(4-(Methylsulfonyl)phenyl)-8-oxo-6-thioxo-5,7-diazaspiro[3.4]octan-7-yl)-3-(trifluoromethyl)picolinonitrile]	> 6.00
N#Cc1ncc(N2C(=O)C3(CCC3)N(c3ccc(OCCN4CCCC4)c(F)c3)C2=S)cc1C(F)(F)F [Compound 127, 5-(5-(3-Fluoro-4-(2-(pyrrolidin-1-yl)ethoxy)phenyl)-8-oxo-6-thioxo-5,7-diazaspiro[3.4]octan-7-yl)-3-(trifluoromethyl)picolinonitrile]	> 6.00
N#Cc1ncc(N2C(=O)C3(CCC3)N(c3ccc(C(=O)NCc4ccccn4)c(F)c3)C2=S)cc1C(F)(F)F [Compound 264, 4-(7-(6-Cyano-5-(trifluoromethyl)pyridin-3-yl)-8-oxo-6-thioxo-5,7-diazaspiro[3.4]octan-5-yl)-2-fluoro-N-(pyridin-2-ylmethyl)benzamide]	> 6.00
Cc1cc(N2C(=O)C3(CCC3)N(c3ccc(C(=O)NCc4ccccc4)c(F)c3)C2=S)cnc1C#N [Compound 273, N-Benzyl-4-(7-(6-cyano-5-methylpyridin-3-yl)-8-oxo-6-thioxo-5,7-diazaspiro[3.4]octan-5-yl)-2-fluorobenzamide]	> 6.00
N#Cc1ncc(N2C(=O)C3(CCC3)N(c3ccc(OCc4ccncc4)c(F)c3)C2=S)cc1C(F)(F)F [Compound 156, 5-(5-(3-Fluoro-4-(pyridin-4-ylmethoxy)phenyl)-8-oxo-6-thioxo-5,7-diazaspiro[3.4]octan-7-yl)-3-(trifluoromethyl)picolinonitrile]	> 6.00
Cc1cc(N2C(=O)C3(CCC3)N(c3ccc(C(=O)Nc4ncco4)c(F)c3)C2=S)cnc1C#N [Compound 300, 4-(7-(6-cyano-5-methylpyridin-3-yl)-8-oxo-6-thioxo-5,7-diazaspiro[3.4]octan-5-yl)-2-fluoro-N-(oxazol-2-yl)benzamide]	> 6.00
Cc1ccc(NC(=O)c2ccc(N3C(=S)N(c4cnc(C#N)c(C)c4)C(=O)C34CCC4)cc2F)cn1 [Compound 304, 4-(7-(6-Cyano-5-methylpyridin-3-yl)-8-oxo-6-thioxo-5,7-diazaspiro[3.4]octan-5-yl)-2-fluoro-N-(6-methylpyridin-3-yl)benzamide]	> 6.00
CN1CCC(Oc2ccc(N3C(=S)N(c4cnc(C#N)c(C(F)(F)F)c4)C(=O)C3(C)C)cc2)CC1 [Compound 196, 5-(4,4-Dimethyl-3-(4-((1-methylpiperidin-4-yl)oxy)phenyl)-5-oxo-2-thioxoimidazolidin-1-yl)-3-(trifluoromethyl)picolinonitrile]	> 6.00
Cc1cncc(-c2ccc(N3C(=S)N(c4cnc(C#N)c(C)c4)C(=O)C34CCC4)cc2)c1 [Compound 98, 3-Methyl-5-(5-(4-(5-methylpyridin-3-yl)phenyl)-8-oxo-6-thioxo-5,7-diazaspiro[3.4]octan-7-yl)picolinonitrile]	> 6.00
Cc1cc(N2C(=O)C3(CCC3)N(c3ccc(C(=O)Nc4ccnn4C)c(F)c3)C2=S)cnc1C#N [Compound 302, 4-(7-(6-Cyano-5-methylpyridin-3-yl)-8-oxo-6-thioxo-5,7-diazaspiro[3.4]octan-5-yl)-2-fluoro-N-(1-methyl-1H-pyrazol-5-yl)benzamide]	> 6.00
N#Cc1ncc(N2C(=O)C3(CCC3)N(c3ccc(Oc4ccccn4)cc3)C2=S)cc1C(F)(F)F [Compound 41, 5-(8-Oxo-5-(4-(pyridin-2-yloxy)phenyl)-6-thioxo-5,7-diazaspiro[3.4]octan-7-yl)-3-(trifluoromethyl)picolinonitrile]	> 6.00
N#Cc1ncc(N2C(=O)C3(CCC3)N(c3ccc(O)cc3F)C2=S)cc1C(F)(F)F [Compound 64, 5-(5-(2-Fluoro-4-hydroxyphenyl)-8-oxo-6-thioxo-5,7-diazaspiro[3.4]octan-7-yl)-3-(trifluoromethyl)picolinonitrile]	> 6.00
N#Cc1ncc(N2C(=O)C3(CCC3)N(c3ccc(Oc4cncnc4)cc3)C2=S)cc1C(F)(F)F [Compound 42, 5-(8-Oxo-5-(4-(pyrimidin-5-yloxy)phenyl)-6-thioxo-5,7-diazaspiro[3.4]octan-7-yl)-3-(trifluoromethyl)picolinonitrile]	> 6.00
N#Cc1ncc(N2C(=O)C3(CCC3)N(c3ccc(OCCN4CCCCC4)c(F)c3)C2=S)cc1C(F)(F)F [Compound 177, 5-(5-(3-Fluoro-4-(2-(piperidin-1-yl)ethoxy)phenyl)-8-oxo-6-thioxo-5,7-diazaspiro[3.4]octan-7-yl)-3-(trifluoromethyl)picolinonitrile]	> 6.00
